Data on 7 compounds can be found in patent EP1676575A2, “MUCIN PRODUCTION INHIBITOR” (TAIHO PHARMACEUTICAL COMPANY LIMITED, priority 2003, dated 2005).

The test system of test [1] is NCI-H292 cells. As to the kind of experiment: Mucin production inhibitory action (EGF-stimulated NCI-H292 cells, mucin in culture supernatant by ELISA). The format is cell-based, human. The note with it: for inhibition at 1 µM / inhibition at 3 µM / inhibition at 10 µM: Homo sapiens, EGF 25 ng/mL, 48 hours, NCI-H292 cells, read-out: Percent inhibition of mucin production (%); for inhibition at 1 µM: Concentration 1 µM; for inhibition at 3 µM: Concentration 3 µM; for inhibition at 10 µM: Concentration 10 µM; for production of mucin (effect in words): summary of Table 1, EGF-stimulated NCI-H292 cells. How it is done:
The test was carried out in accordance with a partially modified method of Takeyama et al. (Proc. Natl. Acad. Sci. USA, Vol. 96, P. 3081-3086, 1999). The specific procedure will be described as follows. NCI-H292 cells, which are human respiratory tract epithelial cell lines, were suspended in a 10%FCS-containing RPMI 1640 culture medium, and disseminated to a 12-well culture plate so that the cell concentration of each well was adjusted to 2 x 10^5 cell/well, followed by culturing for two days. Subsequently, the culture medium was changed to a 0.2%FCS-containing RPMI culture medium, followed by culturing for another two days. The thus-cultured cells were employed in the test. Each test drug and EGF (25 ng/mL) were added to each well, and the mucin level of the supernatant of the culture 48 hours after initiation of culturing was determined through the ELISA method. Percent inhibition (%) with regard to control value was calculated by supposing the difference produced by subtracting normal value from control value to be 100%. In this case, the control value is defined as the mucin amount in the culture supernatant to which only EGF was added, while the normal value is defined as the muchin amount in the culture supernatant containing neither of test drug and EGF. In addition, cilomilast (J. Pharmacol. Exp. Ther., Vol. 284, p. 420-426, 1998) and roflumilast (J. Pharmacol. Exp. Ther., Vol. 297, p. 267-279, 2001), which are typical phosphodiesterase (IV) inhibitors were also tested in a similar manner.

The subject of test [2] is Brown Norway rats. As to the kind of experiment: Inhibitory effect on hyper-secretion of respiratory tract mucus (LPS-induced, mucus in BALF by UEA-1 lectin assay). The test is classed as in vivo. The note with it: mean ± standard deviation; for Mucus level of BALF: LPS 100 µg intratracheal, 6 samples; for Percent inhibition (% ): mucus level of BALF vs control and normal. How it is done:
The procedure of the test was based on a partially modified method of Tesfaigzi et al. (Am. J. Physiol. Lung Cell Mol. Physiol., Vol. 279, p. L1210-L1217, 2000). The specific procedure will be described as follows. To each of the 7-week male Brown Norway rats, LPS (derived from E. coli., strain 0111: B4) 100 µg was intratracheally administered under anesthetic with ether, thereby inducing inflammation. Two days after administration of LPS, the rat was slaughtered under anesthetic with pentobarbital, and the extirpated respiratory tract was washed with PBS containing 5mM EDTA and 5mM dithiothreitol (3 mL). The amount of mucus contained in the collected BALF was determined through a lectin assay method employing UEA-1. Each test drug was suspended in a 0.5% HPMC, and the suspension was orally administered one hour before administration of LPS and on the following day. In Table 2, numerical data are represented by mean value ± standard deviation (each group: 6 samples). Percent inhibition (%) was calculated in the same way as in Test Example 1.

The subject of test [3] is goblet cells in the respiratory tract epithelium. Put plainly: Inhibitory effect on hyperplasia of goblet cells in the respiratory tract epithelium (Sephadex-induced, PAS staining). The test is classed as in vivo, Lewis Wistar rats. The note with it: Fig. 1; oral, once per day for seven days; Sephadex-treated rats; numbers only in the figure. How it is done: The test was carried out in accordance with a partially modified method of Matsubara et al. (Int. Arch. Allergy Immunol., Vol. 116, p. 67-75, 1998). The specific procedure will be described as follows. To each of the 7-week old male Lewis Wistar rats, a Sephadex suspension (0.1 mg/mL/head) was intravenously administered (total three times: day 0, 2, and 5). Two days after the final administration, the rat was slaughtered by exsanguination under anesthetic with pentobarbital. The lung tissue was extirpated from the rat and immersed in a neutral formalin buffer for fixation. […] The ratio of the PAS-stained positive area to the respiratory tract epithelium was calculated by use of an image analysis software (Winroof). Each test compound was suspended in 0.5% hydroxypropylmethyl cellulose (HPMC), and the suspension was orally administered once per day for continuous seven days from the start of administration of Sephadex. In the Figure, numerical data are represented by mean value ± standard deviation (each group: 11-12 samples).

As usually defined, the inhibition is the change of the read-out against control, counted positive when it falls.

Molecules are shown by their SMILES.

Regarding `COc1cc(-c2nc3cc(-n4cncn4)ccc3[nH]2)ccc1OCC1CC1` [Compound 4], in test [1], the inhibition at 1 µM amounted to 22.7% and the inhibition at 3 µM came to 48.8%.
Turning to `O=C(Nc1c(Cl)cncc1Cl)c1ccc(OC(F)F)c(OCC2CC2)c1` [Roflumilast, roflumilast, reference compound], in test [1], the inhibition at 1 µM is -37.4%, the inhibition at 3 µM is -28.7%, the inhibition at 10 µM is -16.8% and the “production of mucin (effect in words)” value is “promoted production of mucin”.
With `COc1ccc(-c2nc3cc(-n4cncn4)ccc3[nH]2)cc1OCC1CC1` [Compound 1], in test [1], the inhibition at 1 µM turned out to be 18.1%, the inhibition at 3 µM was 49.4% and the inhibition at 10 µM was 88.6%. In test [2] (10 mg/kg oral), the “Mucus level of BALF” value came to 202.4 ± 93.1 ng/mL and the “Percent inhibition (% )” value is on record as 53.2 ± 25.7%. Besides, in test [2] (30 mg/kg oral), the “Mucus level of BALF” value turned out to be 166.6 ± 43.6 ng/mL and the “Percent inhibition (% )” value is on record as 63.0 ± 12.0%. In addition, the “hyperplasia of goblet cells (effect in words)” value in test [3] was “inhibitory effect”.
In the case of `COc1ccc(-c2nc3cc(-n4cncn4)ccc3[nH]2)cc1OC1CCCC1` [Compound 2], in test [1], the inhibition at 1 µM is 57.1%, the inhibition at 3 µM was determined as 53.3% and the inhibition at 10 µM was found to be 80.8%.
For `COc1ccc([C@]2(C#N)CC[C@@H](C(=O)O)CC2)cc1OC1CCCC1` [Cilomilast, cilomilast, reference compound], in test [1], the inhibition at 1 µM is -21.4%, the inhibition at 3 µM was -17.2%, the inhibition at 10 µM is -35.2% and the “production of mucin (effect in words)” value is given as “promoted production of mucin”.
Regarding `COc1ccc(-c2nc3cc(-n4cncn4)ccc3[nH]2)cc1OCC(C)C` [Compound 6], in test [1], the inhibition at 1 µM was 15.4%, the inhibition at 3 µM was 51.4% and the inhibition at 10 µM was determined as 102%.
The like results for `COc1ccc(-c2nc3cc(-n4cncn4)ccc3[nH]2)cc1OC` [Compound 3] were, in that order, 60%, 74.9% and 83.9%.
